Data from PMC4114195, “Identification of a cyclic-di-GMP-modulating response regulator that impacts biofilm formation in a model sulfate reducing bacterium” (Frontiers in Microbiology, 2014).

Tests used:
Format in all cases: biochemical
DVU0408 [1] = target: T1, DVU0408 (Nitratidesulfovibrio vulgaris, UniProt Q72F10); test: HPLC, c-di-GMP hydrolysis with added GTP; settings: 100 μM GTP, 100 μM c-di-GMP, 2 mM MnCl2; proposed allosteric at inactive GGDEF domain
T1 construct: gene DVU_0408; full length (gene 2148 bp, about 715 residues), GGDEF-EAL response regulator; E. coli
T1 sequence (Q72F10 1-715): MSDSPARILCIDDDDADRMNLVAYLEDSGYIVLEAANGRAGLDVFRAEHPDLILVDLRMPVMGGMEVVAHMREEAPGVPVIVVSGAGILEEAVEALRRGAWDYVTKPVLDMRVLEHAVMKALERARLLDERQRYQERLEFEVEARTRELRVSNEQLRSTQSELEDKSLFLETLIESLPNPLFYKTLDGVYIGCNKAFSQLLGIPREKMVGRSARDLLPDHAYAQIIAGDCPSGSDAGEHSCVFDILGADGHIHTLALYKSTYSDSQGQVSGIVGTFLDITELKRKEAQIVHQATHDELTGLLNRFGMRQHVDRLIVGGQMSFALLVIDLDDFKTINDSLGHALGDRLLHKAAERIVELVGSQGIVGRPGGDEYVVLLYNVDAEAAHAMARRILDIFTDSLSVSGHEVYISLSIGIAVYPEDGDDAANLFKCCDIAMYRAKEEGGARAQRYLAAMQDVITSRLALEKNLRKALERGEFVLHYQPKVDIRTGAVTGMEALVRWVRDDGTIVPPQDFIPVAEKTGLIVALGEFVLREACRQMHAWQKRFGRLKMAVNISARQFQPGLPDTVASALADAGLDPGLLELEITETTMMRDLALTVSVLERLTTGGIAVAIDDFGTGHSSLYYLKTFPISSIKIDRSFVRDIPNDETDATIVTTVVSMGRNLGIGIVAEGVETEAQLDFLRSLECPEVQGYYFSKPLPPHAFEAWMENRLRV

DVU0330 HD domain = target: T2, DVU0330 HD domain (Nitratidesulfovibrio vulgaris, UniProt Q72F84); test: absorbance at […] nm, phosphodiesterase assay; settings: 5 mM bis-pNPP, 1 or 10 mM MnCl2, pH 8.0
T2 construct: gene DVU_0330; isolated HD (HDOD, no GYP motif) domain 230-412; N-terminal 8xHis-Strep II-MBP tag cut by TEV; E. coli
T2 sequence (Q72F84 230-412): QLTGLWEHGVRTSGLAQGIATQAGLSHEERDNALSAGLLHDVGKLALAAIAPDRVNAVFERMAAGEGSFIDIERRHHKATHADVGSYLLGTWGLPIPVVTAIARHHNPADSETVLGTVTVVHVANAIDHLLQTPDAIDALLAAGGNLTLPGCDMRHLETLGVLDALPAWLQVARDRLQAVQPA

DVU1181 HD-GYP domain = target: T3, DVU1181 HD-GYP domain (Nitratidesulfovibrio vulgaris, UniProt Q72CV2); test: absorbance at […] nm, phosphodiesterase assay; settings: 5 mM bis-pNPP, 1 or 10 mM MnCl2, pH 8.0
T3 construct: gene DVU_1181; isolated HD-GYP domain 176-356; N-terminal 8xHis-Strep II-MBP tag cut by TEV; E. coli
T3 sequence (Q72CV2 176-356): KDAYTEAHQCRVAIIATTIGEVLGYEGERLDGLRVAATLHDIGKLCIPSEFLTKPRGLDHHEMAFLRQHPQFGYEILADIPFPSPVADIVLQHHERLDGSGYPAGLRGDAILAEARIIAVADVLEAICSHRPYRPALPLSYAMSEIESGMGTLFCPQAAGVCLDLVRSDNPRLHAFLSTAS

DVU2933 HD-GYP domain = target: T4, DVU2933 HD-GYP domain (Nitratidesulfovibrio vulgaris, UniProt Q727C2); test: HILIC-TOF MS, c-di-GMP hydrolysis; settings: 100 μM c-di-GMP, 10 mM MnCl2, pH 8.0, room temperature, 24 h
T4 construct: gene DVU_2933; isolated HD-GYP domain 282-458; N-terminal 6xHis tag cut by TEV; E. coli
T4 sequence (Q727C2 282-458): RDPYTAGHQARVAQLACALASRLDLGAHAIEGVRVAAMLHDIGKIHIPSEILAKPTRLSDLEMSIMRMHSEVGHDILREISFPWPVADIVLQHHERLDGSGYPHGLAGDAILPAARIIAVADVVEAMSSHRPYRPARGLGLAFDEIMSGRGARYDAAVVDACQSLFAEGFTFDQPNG

DVU0722 HD-GYP domain = target: T5, DVU0722 HD-GYP domain (Nitratidesulfovibrio vulgaris, UniProt Q72E57); test: HILIC-TOF MS, c-di-GMP hydrolysis; settings: 100 μM c-di-GMP, 10 mM MnCl2, pH 8.0, room temperature, 24 h
T5 construct: gene DVU_0722; isolated HD-GYP domain 336-518; N-terminal 8xHis-Strep II-MBP tag cut by TEV; E. coli
T5 sequence (Q72E57 336-518): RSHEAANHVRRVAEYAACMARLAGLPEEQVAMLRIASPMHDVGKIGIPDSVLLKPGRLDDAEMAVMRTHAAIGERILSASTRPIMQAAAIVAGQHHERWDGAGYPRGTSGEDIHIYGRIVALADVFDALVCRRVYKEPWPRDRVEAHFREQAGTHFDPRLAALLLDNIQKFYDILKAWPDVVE

DVU0408 [2] = target: T1, DVU0408; test: HPLC, phosphodiesterase assay, pGpG formed; settings: 100 μM c-di-GMP, 2 mM MnCl2
DVUA0086 HD-GYP domain = target: T6, DVUA0086 HD-GYP domain (Nitratidesulfovibrio vulgaris, UniProt Q72WK3); test: HILIC-TOF MS, c-di-GMP hydrolysis; settings: 100 μM c-di-GMP, 10 mM MnCl2, pH 8.0, room temperature, 24 h
T6 construct: isolated HD-GYP domain 164-363; N-terminal 6xHis tag cut by TEV; E. coli; gene on native plasmid pDV1
T6 sequence (Q72WK3 164-363): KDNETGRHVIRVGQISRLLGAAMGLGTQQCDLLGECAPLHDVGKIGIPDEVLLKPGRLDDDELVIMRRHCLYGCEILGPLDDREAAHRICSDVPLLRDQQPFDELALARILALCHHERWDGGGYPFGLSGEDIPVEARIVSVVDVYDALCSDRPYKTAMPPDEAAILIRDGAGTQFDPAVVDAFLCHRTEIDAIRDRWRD

Question: With `Nc1nc2c(ncn2[C@@H]2O[C@H](COP(=O)(O)OP(=O)(O)OP(=O)(O)O)[C@@H](O)[C@H]2O)c(=O)[nH]1` [GTP] as the molecule, how does the “HPLC, c-di-GMP hydrolysis with added GTP” value (DVU0408 [1]) read?
Answer: Its value is “There was an increase in the pGpG peak upon addition of GTP”.

Question: Which results are given for `O=[N+]([O-])c1ccc(OP(=O)(O)Oc2ccc([N+](=O)[O-])cc2)cc1` [bis-pNPP]?
Answer: absorbance at 410 nm, phosphodiesterase assay (DVU0330 HD domain): DVU0330 that lacks the GYP motif showed very low activity; absorbance at 410 nm, phosphodiesterase assay (DVU1181 HD-GYP domain): DVU0722 and DVU1181 showed slower activity

Question: Which “HILIC-TOF MS, c-di-GMP hydrolysis” value (DVU2933 HD-GYP domain) does the source give for `Nc1nc2c(ncn2[C@@H]2O[C@@H]3COP(=O)(O)O[C@H]4[C@@H](O)[C@H](n5cnc6c(=O)[nH]c(N)nc65)O[C@@H]4COP(=O)(O)O[C@H]3[C@H]2O)c(=O)[nH]1` [c-di-GMP] here?
Answer: The value was “DVU2933 protein had lower activity, but again pGpG was the main product formed”.

Question: What about the “HILIC-TOF MS, c-di-GMP hydrolysis” value (DVU0722 HD-GYP domain) of the same molecule?
Answer: The value was “DVU0722 protein also hydrolyzed most of the c-di-GMP to pGpG”.

Question: What about the “HPLC, phosphodiesterase assay, pGpG formed” value (DVU0408 [2]) of the same molecule?
Answer: The value was “it did have PDE activity against c-di-GMP”.

Question: And the “HILIC-TOF MS, c-di-GMP hydrolysis” value (DVUA0086 HD-GYP domain)?
Answer: The value was “DVUA0086 protein had maximum activity and completely hydrolyzed c-di-GMP”.
